The source of these data is the NIST ThermoML archive (doi:10.1016/j.fluid.2012.11.007).

The conditions of data set [1]: Crystal; DTA.
Data set [2] is described as follows: Molar enthalpy of transition or fusion. Particulars: Crystal; DSC.

Where “and” joins values, the source holds several entries; their conditions need not be identical. Equal entries are not always repeated. Numbers after ± are expanded uncertainties.

As for `CCCCn1cc[n+](C)c1.[Cl-]` [1-butyl-3-methylimidazolium chloride], the Normal melting temperature in data set [1] stood at 69.80 ± 0.5 °C. The “Molar enthalpy of transition or fusion” value in data set [2] is 6.1 kcal/mol and 6.02 kcal/mol.

`CCn1cc[n+](C)c1.[Cl-]` [1-ethyl-3-methylimidazolium chloride]: the Normal melting temperature in data set [1] came out at 88.60 ± 0.5 °C. In addition, in data set [2], the “Molar enthalpy of transition or fusion” value amounted to 3.67 ± 0.127 kcal/mol.
